Data from patent publication US20030220524A1, “Sulfur containing compounds” (priority 2000, published 2003).
Read-outs that look alike come from different tables or passages of the source.

Columns and labels:
Aspergillus niger = assay: Antifungal paper disk test, diameter of clear zone; format: cell-based; details: for zone of inhibition at 100 µg/disc: read-out: Diameter (mm) of clear Zone A. niger
In short: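 Antifungal activity against Aspergillus niger was assessed by a paper disk assay. Six 5 mm agar plugs from a 5-8 day old colony were homogenized in 2 ml sterile distilled water. A 0.5 ml aliquot was spread over Sabouraud Dextrose Agar plates. Compounds in acetone were applied to disks, with neat acetone controls. Plates were incubated 2 days at 18-20° C. Clear-zone diameter was measured on four replicate plates.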

Aspergillus flavus = assay: Antifungal paper disk test, diameter of clear zone; format: cell-based; details: for zone of inhibition at 100 µg/disc: read-out: Diameter (mm) of clear Zone A. flavus
In short: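 Sulfur compounds were screened against a pure culture of Aspergillus flavus kept on Sabouraud Dextrose Agar. Six 5 mm agar plugs from a 5-8 day old colony were homogenized in 2 ml sterile distilled water, and 0.5 ml was spread over 15 ml Sabouraud Dextrose Agar plates. Paper disks received compound dissolved in acetone, with controls given neat acetone (20 μl). Plates were incubated at 18-20° C. for 2 days in four replicates, and the diameter of the clear zone around each disk was measured.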

KK leukemic cell line = assay: Fixed propidium iodide staining, flow cytometry; format: cell-based, human; details: 48 h
AML-3 leukemic cell line = assay: TUNEL, flow cytometry; format: cell-based, human; parameters: unit: %; details: 48 h
Method: (§1) Adherent cell lines were plated at 35×10^4 cells/60 cm^2 dish the day before exposure to compound. Suspension cells were seeded at 25×10^4 cells/mL in a 6 well dish (Falcon) the day of exposure to compound. Mononucleated, T-cell depleted normal bone marrow cells were seeded at 50×10^4 cells/mL in a 6 well dish the day of exposure to compound. Cells were exposed to solvent control or approximate MTT50 and MTT30 concentrations of the compound. After 48 h of exposure to the compound, cells were harvested and fixed with a final concentration of 4% formaldehyde. Fixed cells were stored at −20° C. in 70% ethanol for no more than 5 days. Approximately 10^5 cells were pelleted and labeled with 0.02 mM Biotin-dUTP and 12.5 U TdT enzyme in a 1× reaction buffer (200 mM potassium cacodylate, 25 mM Tris-HCl, 25 μg/mL bovine serum albumin, pH 6.6), 2.5 mM CoCl2 and 0.01 mM dTTP (Roche Molecular Biochemicals, Laval, QC, Canada) for 45 min at 37° C. Samples were washed and incubated in 200 μL of 1:1000 fluorescein isothiocyanate (FITC)-conjugated avidin (Sigma) in 4×SSC, 5% skim milk powder and 0.05% Tween-20 (Sigma). Following 1 h of mixing at room temperature, the samples were washed and resuspended in 500 μL of D-PBS containing 2.5 μg/mL DNase-free RNase (Boehringer Mannheim) and 10 μg/mL PI. Following a 30 min incubation at room temperature, cells were analyzed using a XL-MCL flow cytometer (Coulter Corporation, Miami, Fla.) and a FACScalibar cytometer (Becton Dickinson, San Jose, Calif.). Profiles shown are representative of one experiment.
as §1, with “? s” for “Cells”, “appr ? nate” for “approximate”, “of” for “of the”, “Pl.” for “PI.”

[1] = test system: WI38 non-transformed diploid fibroblasts; assay: Fixed propidium iodide staining, flow cytometry; format: cell-based, human; details: 48 h
[2] = Aspergillus niger, 100 μg/disk, acetone
[3] = Aspergillus flavus, 100 μg/disk, acetone
[4] = dose 50 uM (229 ug/mL) as printed

Q: Which “Diameter (mm) of clear Zone A. niger” value (Aspergillus niger; 100 μg/disk, acetone) does the source give for `CS(C)(=O)=O` [Compound A, dimethyl sulfone] here?
A: 0 mm

Q: And the “Diameter (mm) of clear Zone A. flavus” value (Aspergillus flavus; 100 μg/disk, acetone)?
A: 0 mm

Q: What about the “% pre-G1 (Fixed PI)” value (KK leukemic cell line; dose 212 uM (20 ug/mL)) of the same molecule?
A: 1.1%

Q: Which “Diameter (mm) of clear Zone A. niger” value (Aspergillus niger; 25 μg/disk, acetone) does the source give for `CSSCS(=O)(=O)c1ccc(C)cc1` [Compound C, α-p-toluenesulfonyl dimethyl disulphide] here?
A: 10.9 mm

Q: What about the “Diameter (mm) of clear Zone A. flavus” value (Aspergillus flavus; 25 μg/disk, acetone) of the same molecule?
A: 8.0 mm

Q: And the “% pre-G1 (Fixed PI)” value (KK leukemic cell line; dose 40.3 uM (20 ug/mL))?
A: 20.6%

Q: And the “TUNEL FITC +ve” value (AML-3 leukemic cell line; dose 20.2 uM (10 ug/mL))?
A: 22.4

Q: With `CSSCOC(C)=O` [I, 2,3-dithiabutyl acetate] as the molecule, how does the zone of inhibition at 100 µg/disc (Aspergillus niger; [2]) read?
A: 2.3 mm

Q: What about the zone of inhibition at 100 µg/disc (Aspergillus flavus; [3]) of the same molecule?
A: 2.3 mm

Q: What about the “% pre-G1 (Fixed PI)” value (KK leukemic cell line; dose 65.7 uM (10 ug/mL)) of the same molecule?
A: 48.4%

Q: And the “TUNEL FITC +ve” value (AML-3 leukemic cell line; dose 32.8 uM (5 ug/mL))?
A: 57.3

Q: With `CSSc1ccc([N+](=O)[O-])cc1` [M, methyl p-nitrophenyl disulphide] as the molecule, how does the “Diameter (mm) of clear Zone A. niger” value (Aspergillus niger; 10 μg/disk, acetone, listed as p-CH3SS(C6H4)NO2) read?
A: 3.8 mm

Q: What about the zone of inhibition at 10 µg/disc (Aspergillus niger; Aspergillus niger, 10 μg/disk, acetone) of the same molecule?
A: 3.9 mm

Q: And the zone of inhibition at 10 µg/disc (Aspergillus flavus; Aspergillus flavus, 10 μg/disk, acetone)?
A: 4 mm

Q: And the “% pre-G1 (Fixed PI)” value ([1]; dose 40 uM)?
A: 16%

Q: What about the “% pre-G1 (Fixed PI)” value ([1]; dose 120 uM as printed) of the same molecule?
A: 119%

Q: How did the zone of inhibition at 2.5 µg/disc (Aspergillus niger; Aspergillus niger, 2.5 μg/disk, acetone) turn out when `CCC(=O)OCSSc1ccccc1` [Compound Q, 1-phenyl-1,2-dithiapropyl propionate] was run?
A: 3.5 mm

Q: And the zone of inhibition at 2.5 µg/disc (Aspergillus flavus; Aspergillus flavus, 2.5 μg/disk, acetone)?
A: 2.3 mm

Q: And the “% G2 increase (Fixed PI)” value ([1]; dose 20 uM)?
A: +3%

Q: What about the “% pre-G1 (Fixed PI)” value ([1]; dose 20 uM) of the same molecule?
A: 1%

Q: And the “% G2 increase (Fixed PI)” value ([1]; dose 40 uM)?
A: +10%

Q: And the “% pre-G1 (Fixed PI)” value ([1]; dose 40 uM)?
A: 1%

Q: And the “% pre-G1 (Fixed PI)” value (KK leukemic cell line; dose 20 uM)?
A: 15%

Q: And the “% G2 increase (Fixed PI)” value (KK leukemic cell line; dose 40 uM)?
A: −4%

Q: What about the “% pre-G1 (Fixed PI)” value (KK leukemic cell line; dose 40 uM) of the same molecule?
A: 43%

Q: What does the source list for `CSCSSC` [Compound N, 2,3,5-trithiahexane]?
A: zone of inhibition at 100 µg/disc (Aspergillus niger; Aspergillus niger): 0 mm; zone of inhibition at 100 µg/disc (Aspergillus flavus; Aspergillus flavus): 0 mm; % G2 increase (Fixed PI) ([1]; dose 50 uM): +7%; % pre-G1 (Fixed PI) ([1]; dose 50 uM): 2%; % G2 increase (Fixed PI) ([1]; dose 150 uM): +25%; % pre-G1 (Fixed PI) ([1]; dose 150 uM): 4%; % G2 increase (Fixed PI) (KK leukemic cell line; dose 50 uM): +4%; % pre-G1 (Fixed PI) (KK leukemic cell line; dose 50 uM): 13%; % G2 increase (Fixed PI) (KK leukemic cell line; dose 150 uM): +5%; % pre-G1 (Fixed PI) (KK leukemic cell line; dose 150 uM): 10%

Q: `CSSCC(=O)c1ccccc1` [Compound P, phenacyl methyl disulphide] was tested. Which “% pre-G1 (Fixed PI)” value ([1]; dose 50 uM) did it give?
A: 2%

Q: What about the “% pre-G1 (Fixed PI)” value ([1]; dose 150 uM) of the same molecule?
A: 52%

Q: For `CS(=O)(=O)CSSc1ccccc1` [E, 5-phenyl-2,4,5-trithiapentane 2,2-dioxide], which zone of inhibition at 25 µg/disc (Aspergillus niger; Aspergillus niger, 25 μg/disk, acetone) is on record?
A: 0.8 mm

Q: What about the zone of inhibition at 25 µg/disc (Aspergillus flavus; Aspergillus flavus, 25 μg/disk, acetone) of the same molecule?
A: 1.8 mm

Q: What about the “% pre-G1 (Fixed PI)” value (KK leukemic cell line; dose 85.3 uM (20 ug/mL)) of the same molecule?
A: 34.7%

Q: What does the source list for `COC(=O)CSSC` [H, methyl 3,4-dithiopentanoate]?
A: Diameter (mm) of clear Zone A. niger (Aspergillus niger; 100 μg/disk, acetone): 0 mm; Diameter (mm) of clear Zone A. flavus (Aspergillus flavus; 100 μg/disk, acetone): 0 mm; % pre-G1 (Fixed PI) ([1]; dose 985 uM (150 ug/mL)): 0.7%; % pre-G1 (Fixed PI) (KK leukemic cell line; dose 133.4 uM (20 ug/mL)): 5.9%; TUNEL FITC +ve (AML-3 leukemic cell line; dose 65.7 uM (10 ug/mL)): 10.2

Q: What does the source list for `CS(=O)(=O)CSCS(C)(=O)=O` [G, 2,4,6-trithiaheptane 2,2,6,6-tetraoxide]?
A: zone of inhibition at 100 µg/disc (Aspergillus niger; [2]): 0 mm; zone of inhibition at 100 µg/disc (Aspergillus flavus; [3]): 0 mm; % pre-G1 (Fixed PI) (KK leukemic cell line; dose 91.6 uM (20 ug/mL)): 3.8%; TUNEL FITC +ve (AML-3 leukemic cell line; dose 45.8 uM (10 ug/mL)): 3.0

Q: What does the source list for `CSSCCS(C)(=O)=O` [F, 2,3,6-trithiaheptane 6,6,-dioxide]?
A: Diameter (mm) of clear Zone A. niger (Aspergillus niger; 100 μg/disk, acetone): 0 mm; Diameter (mm) of clear Zone A. flavus (Aspergillus flavus; 100 μg/disk, acetone): 0 mm; % G2/M (Fixed PI) [1, 4]: 17.8%; % pre-G1 (Fixed PI) [1, 4]: 0.1%; % pre-G1 (Fixed PI) (KK leukemic cell line; dose 91.6 uM (20 ug/mL)): 3.8%; TUNEL FITC +ve (AML-3 leukemic cell line; dose 45.8 uM (10 ug/mL)): 31.9

Q: Which results are given for `CSCSCS(C)(=O)=O` [B]?
A: % pre-G1 (Fixed PI) (KK leukemic cell line; dose 107 uM (20 ug/mL)): 1.1%; TUNEL FITC +ve (AML-3 leukemic cell line; dose 107 uM (20 ug/mL)): 3.85

Q: `c1ccc(SSc2ccccc2)cc1` [D, diphenyl disulphide] was tested. Which zone of inhibition at 100 µg/disc (Aspergillus niger; [2]) did it give?
A: 0 mm

Q: And the zone of inhibition at 100 µg/disc (Aspergillus flavus; [3])?
A: 0 mm

Q: And the “% pre-G1 (Fixed PI)” value (KK leukemic cell line; dose 91.6 uM (20 ug/mL))?
A: 33.9%
